Data reported in patent US20230285498A1, “TREATMENTS FOR CANCERS HAVING KRAS MUTATIONS” (City of Hope, priority 2020, published 2023).
Read-outs that look alike come from different tables or passages of the source.

Experiments:
H23 = test: Cell proliferation assay, 2D (IncuCyte live cell imaging); format: cell-based
Experimental: (§1) The cells grown in 2D cultures were treated with various concentrations of the drug, and the effect on cell proliferation was determined in real time using the live cell proliferation assay (IncuCyte, Essen Bioscience, Inc.) as described in the methods.
(§2) Cell proliferation and apoptosis assay: Cell proliferation assays were performed using cell lines stably transfected with NucLight Red Lentivirus (Essen BioScience) to accurately visualize and count the nucleus of a single cell. Cells were seeded on a 96-well plate and allowed to adhere for 24 h. Test compounds were added at indicated concentrations. Caspase-3/7 Green Apoptosis Reagent (Essen BioScience) was also added as a green fluorescent indicator of caspase3/7-mediated apoptotic activity. To monitor cell proliferation and apoptosis over time, the plate was placed in the IncuCyte S3 Live Cell Imaging System (Essen BioScience) and images were acquired every 2 hours. Data analysis was generated by the IncuCyte software using a red fluorescence mask to accurately count each cell nucleus and a green fluorescence mask to measure apoptosis over time. 3D spheroid assay 3D spheroid experiments were performed using cell lines stably transfected with NucLight Red Lentivirus (Essen BioScience) to visualize red fluorescence as an indicator of cell viability. Cells were seeded on a 96-well ultra-low attachment plate and allowed to form spheroids overnight. Drug treatment was added as indicated along with Cytotox Green Reagent (Essen BioScience), used as a green fluorescence indicator of cell death due to loss of cell membrane integrity. To monitor cell proliferation and apoptosis over time, the plate was placed in the IncuCyte S3 Live Cell Imaging System (Essen BioScience) and images were acquired every 2 hours. Data analysis was generated by the IncuCyte software using a red fluorescence mask to accurately measure intensity and area of red fluorescence, indicating spheroid viability and a green fluorescence mask, indicating cell death. Cell cycle analysis.

H358 = test: as above; format: cell-based; conditions: Homo sapiens, NCI-H358
Experimental: as §1, §2

SW1573 = test: as above; format: cell-based; conditions: for IC50 / inhibition of cell growth at last time point: SW1573; for inhibition of cell growth at last time point: 96 hours
Experimental: The cells were seeded at density of 10000 cells/well 12 hours prior to the experiment. Once the cells attached to the plate the media was removed and the drugs were added to the cells. […] Cell proliferation was observed using the IncuCyte Live Imaging System for 72 hrs.
Knockdown of ITGB4 (Cat #SR302473C) at the mRNA level in the SW1573 cells was done using siRNAs purchased from OriGene Technologies (Rockville, Md., USA). JetPRIME transfection reagent (Polyplus Transfection, Illkirch, France) was used to transfect the siRNAs according to the manufacturer's protocol. Cells were seeded in 6-well plates (200,000 cells/well) and allowed to adhere overnight. Next day, 10 nM siRNA was transfected with 4 μl jetPRIME reagent in complete growth medium for each well. Next day cells were trypsinized, counted and re-plated on the 96 well plate for cell proliferation and drug assay. […] Cell growth medium was changed the next day and expression was detected 72 h post-transfection by immunoblotting.
as §1, §2

SW1573 cells [1] = test: Zebrafish larvae SW1573 xenotransplant; format: in vivo
Experimental: The inventors microinjected SW1573 cells into the perivitelline space of 48 hour post-fertilization (hpf) zebrafish larvae.

H23 cells = test: Zebrafish larvae H23 xenotransplant; format: in vivo; conditions: 72 h, 12 µM
SW1573 cells [2] = test: Cell cycle analysis (FACS); format: cell-based; conditions: 20 μM, 72 hours
Excerpt: Using commercially available lentiviral particles (Essen Bioscience Inc.), a SW1573 stable cell line was developed to determine the dynamics of the cell cycle in response to the KRAS inhibitors. In the G1 phase, these cells express the red fluorescent protein and in G2, they express the green fluorescent protein, and cells transitioning from G1 to […], express both the proteins giving rise to yellow florescence.
Cell cycle analysis. […] The stable cell line was generated using the puromycin selection media. Yellow cells are indicative of cell cycle transition from G1 to S while non-fluorescent cells are moving from M to G1.

SW1573 cells [3] = test: Protein array of global phosphorylation changes; format: cell-based; conditions: IC50 concentration; 72 hours
Experimental: The phosphorylation changes were analyzed employing the AVM BioMed protein array platform.

[4] = system: ITGB4-overexpressing H23 cells; test: Cell proliferation, ITGB4-overexpressing cells; format: cell-based; conditions: Homo sapiens, NCI-H23
[5] = system: H23 sotorasib (20 μM)-resistant cells; test: Cell proliferation, isogenic sotorasib resistant line; format: cell-based; conditions: ITGB4/β-catenin double knockdown together with sotorasib; 96 hours
Excerpt: Next, it was sought to determine cell proliferation changes with the combination treatment.

[6] = system: WNT2, CFTR and CCL2 expression in H23 cells; test: qPCR validation of RNAseq; format: cell-based
Experimental: The drug treatment what initiated at dose of 1 μM which was finally raised up to 7.5 μM. […] Further, using qPCR assay we validated the RNAseq data and observed more than 40 fold induction in expression of various genes such as WNT2, CFTR and CCl2. (FIGS. 17D-17F). Further the analysis also identified activation of MYC and E2F Target Hall Mark Pathways which may help H23 cells in withstanding drug toxicity (data not shown).
Quantitative real-time PCR and RNAseq: Quantitative real-time PCR (qPCR) reactions were performed using TaqMan Universal PCR Master Mix (Thermo Fisher Scientific, Waltham, Mass.) and analyzed by the Quant Studio? Real-time PCR system (Life Technologies, Grand Island, N.Y.). Total RNA isolation and on-column DNase digestion from cells were performed basing on the manufacturer's protocol RNeasy Plus Mini Kit (Qiagen Cat #: 74134). 1 ug of RNA was used to synthesize the cDNA according to the one step cDNA synthesis kit from QuantaBio (Cat #: 101414-106). TaqMan probes were purchased from ThermoFisher (Waltham, Mass.). The mRNA expression was analyzed using multiplex PCR for the gene of interest and GAPDH as a reference using two independent detection dyes FAM probes and VIC probes respectively. Relative mRNA expression was normalized to GAPDH signals and calculated using the delta Ct method.

In the case of `C=CC(=O)N1CCN(c2nc(=O)n(-c3c(C)ccnc3C(C)C)c3nc(-c4c(O)cccc4F)c(F)cc23)[C@@H](C)C1` [sotorasib], the cell count (H23; H23, 1-3 μM, 24 h, start 9,000, control 15,000) is reported as 12,000, the IC50 (H23; Homo sapiens, NCI-H23, 72 h, H23, 72 hours, Example 6) is reported as 3000 nM and the IC50 (H23; Homo sapiens, NCI-H23, H23, Example 1, FIG. 14C-14D) is reported as 3200 nM. For the same molecule, the inhibition at 0.3 µM (H23; Homo sapiens, NCI-H23, H23, 0.3 μM) was roughly 20%, the inhibition at 10 µM (H23; Homo sapiens, NCI-H23, H23, 72 hours, read-out: inhibition of proliferation / cell growth) was roughly 80% and the inhibition at 5 µM (H23; Homo sapiens, NCI-H23, H23 parental cells, 5 μM, FIG. 4B, read-out: inhibition of proliferation) was 50%. It also gave an inhibition at 10 µM (H23; Homo sapiens, NCI-H23, H23 parental cells, FIG. 4B, read-out: inhibition of proliferation) of 70%, an IC50 (H358) of 63 nM and an inhibition at 0.61 µM (H358; H358, 0.61 μM) of roughly 60%. For the same molecule, the IC50 (H358; H358, 72 hours, Example 6, read-out: IC50, cell proliferation) was 130 nM, the IC50 (H358; H358, Example 1, FIG. 14C-14D, read-out: IC50, cell proliferation) was 800 nM and the inhibition at 10 µM (SW1573; Homo sapiens, SW1573, 72 h, read-out: inhibition of proliferation / cell growth) was roughly 50%. The IC50 (SW1573; Homo sapiens, 72 hours, Example 6) was 9500 nM, the IC50 (SW1573; Homo sapiens, Example 1, FIG. 14C-14D) was 8000 nM and the “inhibition of cell growth at last time point” value (SW1573; ITGB4/β-catenin double knockdown plus sotorasib) was “about 70%”. The “inhibition of cell growth at last time point” value (SW1573; sotorasib at IC50 concentration only) was “about 40%”, the “most effective dose, drug alone (obliterates SW1573 cells)” value (SW1573 cells [1]) was 12 µM and the “toxic dose, drug alone” value (SW1573 cells [1]) was 18 µM. The “reduction of tumor growth (median)” value (H23 cells) was “about 80%”, the G2 population (SW1573 cells [2]; from 26%) was 11% and the G1 population (SW1573 cells [2]; from about 39%) was 62%. The “number of proteins with phosphorylation changes unique to the treatment” value (SW1573 cells [3]) was 1482 proteins, the “number of proteins with significant phosphorylation changes” value (SW1573 cells [3]) was 1764 proteins and the inhibition at 10 µM [4] was 5%. For the same molecule, the “sensitization of isogenic resistant line” value [5] was 70% and the “induction in expression of WNT2, CFTR and CCL2 (qPCR)” value [6] was “more than 40 fold”.
